Data: the NIST ThermoML archive (doi:10.1021/acs.jced.8b00433)

Test: xn = mol fraction of the nth substance listed
Settings: Gas, Buoyancy - hydrostatic balance with magnetic suspension - one sinker

C [methane] + O=C=O
Settings | mass density [kg/m3]
313.09 K, 17999 kPa, x2 = 0.2017 | 188.702
313.1 K, 4001 kPa, x2 = 0.8988 | 75.134
313.1 K, 4996 kPa, x2 = 0.3997 | 58.587
313.1 K, 5996 kPa, x2 = 0.7985 | 114.567
313.1 K, 7003 kPa, x2 = 0.7985 | 142.512
313.1 K, 7006 kPa, x2 = 0.6015 | 110.298
313.11 K, 7997 kPa, x2 = 0.7985 | 174.464
313.11 K, 10000 kPa, x2 = 0.6015 | 177.419
313.11 K, 12001 kPa, x2 = 0.0998 | 102.596
313.11 K, 14997 kPa, x2 = 0.3997 | 217.543
313.12 K, 7992 kPa, x2 = 0.8988 | 206.745
313.12 K, 14996 kPa, x2 = 0.8988 | 624.636
313.13 K, 4001 kPa, x2 = 0.0998 | 30.822
313.13 K, 4002 kPa, x2 = 0.6015 | 56.419
313.13 K, 5003 kPa, x2 = 0.8988 | 100.174
313.13 K, 6004 kPa, x2 = 0.6015 | 90.955
313.13 K, 9996 kPa, x2 = 0.7985 | 256.481
313.13 K, 10003 kPa, x2 = 0.0998 | 83.788
313.13 K, 11005 kPa, x2 = 0.3997 | 149.559
313.14 K, 3998 kPa, x2 = 0.3997 | 45.694
313.14 K, 7995 kPa, x2 = 0.6015 | 130.852
313.14 K, 11000 kPa, x2 = 0.0998 | 93.126
313.14 K, 11001 kPa, x2 = 0.2017 | 110.189
313.14 K, 11001 kPa, x2 = 0.6015 | 202.91
313.14 K, 15004 kPa, x2 = 0.7985 | 485.573
313.15 K, 4004 kPa, x2 = 0.7985 | 68.752
313.15 K, 5996 kPa, x2 = 0.3997 | 72.099
313.15 K, 11997 kPa, x2 = 0.8988 | 506.067
313.16 K, 5003 kPa, x2 = 0.7985 | 90.396
313.16 K, 6996 kPa, x2 = 0.3997 | 86.285
313.16 K, 18004 kPa, x2 = 0.6015 | 375.856
313.17 K, 3002 kPa, x2 = 0.0998 | 22.748
313.17 K, 5002 kPa, x2 = 0.6015 | 73.052
313.17 K, 5997 kPa, x2 = 0.8988 | 128.664
313.17 K, 8998 kPa, x2 = 0.6015 | 153.28
313.17 K, 15002 kPa, x2 = 0.0998 | 130.663
313.17 K, 18004 kPa, x2 = 0.0998 | 157.443
313.17 K, 18005 kPa, x2 = 0.7985 | 560.943
313.18 K, 8998 kPa, x2 = 0.8988 | 265.242
313.18 K, 9004 kPa, x2 = 0.2017 | 87.631
313.18 K, 11998 kPa, x2 = 0.6015 | 229.134
313.18 K, 14996 kPa, x2 = 0.2017 | 155.927
313.19 K, 5002 kPa, x2 = 0.0998 | 39.114
313.19 K, 6000 kPa, x2 = 0.0998 | 47.652
313.19 K, 8998 kPa, x2 = 0.3997 | 116.64
313.19 K, 9995 kPa, x2 = 0.3997 | 132.712
313.19 K, 10993 kPa, x2 = 0.7985 | 305.994
313.19 K, 11992 kPa, x2 = 0.3997 | 166.169
313.2 K, 3998 kPa, x2 = 0.2017 | 35.711
313.2 K, 9001 kPa, x2 = 0.0998 | 74.487
313.2 K, 9003 kPa, x2 = 0.7985 | 212.239
313.2 K, 10990 kPa, x2 = 0.8988 | 432.06
313.21 K, 5000 kPa, x2 = 0.2017 | 45.475
313.21 K, 6999 kPa, x2 = 0.0998 | 56.348
313.21 K, 8000 kPa, x2 = 0.0998 | 65.323
313.21 K, 9999 kPa, x2 = 0.8988 | 344.181
313.21 K, 14995 kPa, x2 = 0.6015 | 308.146
313.21 K, 17995 kPa, x2 = 0.8988 | 683.03
313.21 K, 17997 kPa, x2 = 0.3997 | 264.841
313.22 K, 5999 kPa, x2 = 0.2017 | 55.518
313.22 K, 6997 kPa, x2 = 0.8988 | 163.201
313.22 K, 8000 kPa, x2 = 0.2017 | 76.608
313.22 K, 11998 kPa, x2 = 0.2017 | 121.576
313.22 K, 12000 kPa, x2 = 0.7985 | 357.778
313.23 K, 7005 kPa, x2 = 0.2017 | 65.96
313.24 K, 10003 kPa, x2 = 0.2017 | 98.786
313.27 K, 8000 kPa, x2 = 0.3997 | 101.088
333.06 K, 10002 kPa, x2 = 0.2017 | 88.824
333.07 K, 4003 kPa, x2 = 0.7985 | 62.105
333.07 K, 11999 kPa, x2 = 0.3997 | 144.496
333.07 K, 17998 kPa, x2 = 0.2017 | 166.841
333.08 K, 4997 kPa, x2 = 0.6015 | 65.944
333.08 K, 5002 kPa, x2 = 0.3997 | 53.475
333.08 K, 8999 kPa, x2 = 0.2017 | 79.049
333.08 K, 9003 kPa, x2 = 0.3997 | 103.555
333.08 K, 15000 kPa, x2 = 0.8988 | 456.324
333.1 K, 5000 kPa, x2 = 0.0998 | 36.091
333.11 K, 6004 kPa, x2 = 0.6015 | 81.338
333.11 K, 11001 kPa, x2 = 0.2017 | 98.605
333.12 K, 4001 kPa, x2 = 0.6015 | 51.39
333.12 K, 4003 kPa, x2 = 0.2017 | 33.068
333.12 K, 6995 kPa, x2 = 0.3997 | 77.606
333.12 K, 9995 kPa, x2 = 0.3997 | 116.802
333.12 K, 14999 kPa, x2 = 0.0998 | 116.773
333.12 K, 18006 kPa, x2 = 0.6015 | 310.346
333.13 K, 5006 kPa, x2 = 0.8988 | 88.521
333.13 K, 5996 kPa, x2 = 0.2017 | 50.919
333.13 K, 7000 kPa, x2 = 0.0998 | 51.598
333.13 K, 10993 kPa, x2 = 0.8988 | 274.201
333.13 K, 12000 kPa, x2 = 0.6015 | 189.959
333.13 K, 14996 kPa, x2 = 0.3997 | 186.621
333.14 K, 4996 kPa, x2 = 0.2017 | 41.851
333.14 K, 7998 kPa, x2 = 0.6015 | 114.282
333.14 K, 10995 kPa, x2 = 0.6015 | 169.869
333.14 K, 11002 kPa, x2 = 0.3997 | 130.586
333.14 K, 11997 kPa, x2 = 0.8988 | 319.541
333.14 K, 14998 kPa, x2 = 0.7985 | 360.976
333.14 K, 18001 kPa, x2 = 0.0998 | 140.51
333.15 K, 6001 kPa, x2 = 0.0998 | 43.781
333.15 K, 8994 kPa, x2 = 0.6015 | 131.934
333.15 K, 11999 kPa, x2 = 0.0998 | 92.187
333.15 K, 14994 kPa, x2 = 0.2017 | 138.03
333.15 K, 14999 kPa, x2 = 0.6015 | 251.317
333.16 K, 7002 kPa, x2 = 0.6015 | 97.409
333.16 K, 11003 kPa, x2 = 0.0998 | 83.984
333.16 K, 12001 kPa, x2 = 0.2017 | 108.442
333.16 K, 18000 kPa, x2 = 0.7985 | 447.149
333.16 K, 18001 kPa, x2 = 0.3997 | 227.522
333.17 K, 4004 kPa, x2 = 0.3997 | 41.983
333.17 K, 4007 kPa, x2 = 0.8988 | 67.864
333.17 K, 5002 kPa, x2 = 0.7985 | 80.565
333.17 K, 7997 kPa, x2 = 0.8988 | 164.576
333.18 K, 9007 kPa, x2 = 0.7985 | 170.905
333.18 K, 9999 kPa, x2 = 0.0998 | 75.751
333.18 K, 12003 kPa, x2 = 0.7985 | 260.729
333.19 K, 7001 kPa, x2 = 0.8988 | 136.146
333.19 K, 8000 kPa, x2 = 0.0998 | 59.549
333.19 K, 8996 kPa, x2 = 0.8988 | 196.344
333.19 K, 8999 kPa, x2 = 0.0998 | 67.601
333.19 K, 9999 kPa, x2 = 0.7985 | 198.595
333.19 K, 10001 kPa, x2 = 0.6015 | 150.602
333.19 K, 11002 kPa, x2 = 0.7985 | 228.687
333.2 K, 5991 kPa, x2 = 0.7985 | 100.196
333.2 K, 6008 kPa, x2 = 0.3997 | 65.434
333.2 K, 7994 kPa, x2 = 0.7985 | 145.123
333.2 K, 8002 kPa, x2 = 0.2017 | 69.464
333.21 K, 9996 kPa, x2 = 0.8988 | 232.812
333.21 K, 18000 kPa, x2 = 0.8988 | 552.634
333.22 K, 6999 kPa, x2 = 0.2017 | 60.167
333.22 K, 7005 kPa, x2 = 0.7985 | 121.973
333.22 K, 7995 kPa, x2 = 0.3997 | 90.268
333.24 K, 6001 kPa, x2 = 0.8988 | 110.997
353.02 K, 2999 kPa, x2 = 0.0998 | 19.722
353.03 K, 10001 kPa, x2 = 0.6015 | 135.164
353.05 K, 9004 kPa, x2 = 0.6015 | 119.448
353.08 K, 12003 kPa, x2 = 0.8988 | 250.219
353.08 K, 14998 kPa, x2 = 0.2017 | 125.022
353.09 K, 11999 kPa, x2 = 0.6015 | 167.978
353.09 K, 17992 kPa, x2 = 0.6015 | 269.799
353.1 K, 8995 kPa, x2 = 0.8988 | 165.756
353.1 K, 17997 kPa, x2 = 0.8988 | 437.7
353.11 K, 12000 kPa, x2 = 0.3997 | 129.551
353.11 K, 18006 kPa, x2 = 0.7985 | 362.285
353.12 K, 5997 kPa, x2 = 0.8988 | 99.468
353.12 K, 6004 kPa, x2 = 0.6015 | 74.991
353.12 K, 18000 kPa, x2 = 0.3997 | 201.731
353.13 K, 4000 kPa, x2 = 0.8988 | 61.9
353.13 K, 6004 kPa, x2 = 0.3997 | 60.111
353.13 K, 14997 kPa, x2 = 0.3997 | 165.894
353.14 K, 9003 kPa, x2 = 0.0998 | 62.172
353.14 K, 14999 kPa, x2 = 0.6015 | 219.076
353.15 K, 6003 kPa, x2 = 0.7985 | 90.263
353.15 K, 14995 kPa, x2 = 0.0998 | 106.161
353.15 K, 14999 kPa, x2 = 0.8988 | 346.055
353.16 K, 3001 kPa, x2 = 0.6015 | 35.135
353.16 K, 15004 kPa, x2 = 0.7985 | 288.885
353.17 K, 9004 kPa, x2 = 0.3997 | 93.855
353.18 K, 3996 kPa, x2 = 0.7985 | 56.892
353.18 K, 4002 kPa, x2 = 0.2017 | 30.584
353.18 K, 4004 kPa, x2 = 0.3997 | 38.873
353.18 K, 11994 kPa, x2 = 0.7985 | 214.517
353.22 K, 8998 kPa, x2 = 0.7985 | 147.521
353.22 K, 17999 kPa, x2 = 0.0998 | 127.527
353.23 K, 6000 kPa, x2 = 0.0998 | 40.53
353.24 K, 11994 kPa, x2 = 0.0998 | 84.225
353.26 K, 6007 kPa, x2 = 0.2017 | 46.942
353.27 K, 9000 kPa, x2 = 0.2017 | 72.326
353.28 K, 12001 kPa, x2 = 0.2017 | 98.585
353.37 K, 17994 kPa, x2 = 0.2017 | 150.552
